Legend:
[1] = system: CNL carrying a JAK-activating CSF3R mutation; conditions: one patient with CNL carrying a JAK-activating CSF3R mutation; cited from earlier work
[2] = system: GCSF induced pSTAT3 in human neutrophils; assay: JAK human neutrophil assay (pSTAT3 ELISA); conditions: 0.25 h, read-out: IC50 (inhibition of pSTAT3)

IC50 [2]: < 100 nM
SMILES: N#CCC(C1CCCC1)n1cc(-c2ncnc3[nH]ccc23)cn1 (stereo in doubt) [ruxolitinib, (3R)-3-cyclopentyl-3-[4-(7H-pyrrolo[2,3-d]pyrimidin-4-yl)-1H-pyrazol-1-yl]propanenitrile, reference compound]
clinical improvement [1]: Marked clinical improvement
